In US11591369B2, “Alpha(v)beta(6) integrin-binding peptides and methods of use thereof” (priority 2018, dated 2023):
Values joined by “and” are separate entries in the source; they are usually repeats but may differ in a detail not shown here. Equal entries are not always repeated. Where two headings read alike, the source gives them in different places. Where a SMILES comes first, the peptide text is derived from it. Primed or numbered codes have the meaning given here. Where no end group is shown, it is not given here. The star is where a group is joined. (18F)FB = [18F] fluorobenzoyl group, O=C(c1ccc([18F])cc1)*; (18F)FB″ = [18F]fluorobenzoyl, O=C(c1ccc([18F])cc1)*; Benzoyl(4-F) = O=C(c1ccc(F)cc1)*; FB = fluorobenzoyl

Key:
[1] = biological target: T1, αvβ6 integrin (Homo sapiens, UniProt P06756+P18564); assay: Competitive binding ELISA against biotinylated LAP (BtLAP), αvβ6 integrin; settings: for fold drop in affinity for αvβ6: compared to T1
T1 construct: All purified integrins were purchased from R&D Systems (MN, USA); purchased R&D Systems (MN, USA)

[2] = Circular dichroism (CD) spectroscopy; type: physicochemical; settings: for % Helical Content CD Buffer: 25 mM phosphate + 100 mM NaF; for % Helical Content CD Buffer + 30% TFE: buffer with 30% trifluoroethanol
[3] = test system: DX3puroβ6 (αvβ6+) cells; assay: [18F]-radiolabeled peptide cell binding and internalization, DX3puroβ6 (αvβ6+) cells; type: cell-based, human; settings: for binding to DX3puroβ6 (αvβ6+) cells: % of total activity, 37° C.

T1 sequence (P06756 31-992 limits assumed): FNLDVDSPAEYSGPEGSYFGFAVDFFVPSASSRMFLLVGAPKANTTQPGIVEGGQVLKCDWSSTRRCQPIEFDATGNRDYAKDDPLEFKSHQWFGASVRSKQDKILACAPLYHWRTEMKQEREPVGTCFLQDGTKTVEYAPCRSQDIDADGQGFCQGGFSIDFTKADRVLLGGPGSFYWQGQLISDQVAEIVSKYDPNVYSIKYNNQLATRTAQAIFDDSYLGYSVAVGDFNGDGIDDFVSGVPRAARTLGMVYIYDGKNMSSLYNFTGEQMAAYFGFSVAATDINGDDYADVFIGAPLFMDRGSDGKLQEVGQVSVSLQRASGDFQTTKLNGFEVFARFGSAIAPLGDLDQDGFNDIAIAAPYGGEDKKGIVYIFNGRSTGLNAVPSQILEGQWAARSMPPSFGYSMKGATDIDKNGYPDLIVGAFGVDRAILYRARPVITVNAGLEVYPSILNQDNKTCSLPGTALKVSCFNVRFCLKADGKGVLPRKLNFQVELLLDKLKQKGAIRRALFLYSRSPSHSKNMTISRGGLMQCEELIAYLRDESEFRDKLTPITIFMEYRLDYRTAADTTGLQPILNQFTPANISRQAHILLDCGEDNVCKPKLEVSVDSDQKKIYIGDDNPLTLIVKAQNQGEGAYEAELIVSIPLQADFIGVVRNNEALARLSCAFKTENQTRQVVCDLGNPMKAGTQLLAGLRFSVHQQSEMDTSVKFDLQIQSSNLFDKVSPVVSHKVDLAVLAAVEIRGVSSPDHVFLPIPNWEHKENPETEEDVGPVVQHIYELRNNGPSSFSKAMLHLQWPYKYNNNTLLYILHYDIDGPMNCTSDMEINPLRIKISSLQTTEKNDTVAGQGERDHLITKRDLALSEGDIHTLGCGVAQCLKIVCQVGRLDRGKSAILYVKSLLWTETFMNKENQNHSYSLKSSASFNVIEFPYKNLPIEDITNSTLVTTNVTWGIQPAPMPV
T1 sequence (P18564 22-707 limits assumed): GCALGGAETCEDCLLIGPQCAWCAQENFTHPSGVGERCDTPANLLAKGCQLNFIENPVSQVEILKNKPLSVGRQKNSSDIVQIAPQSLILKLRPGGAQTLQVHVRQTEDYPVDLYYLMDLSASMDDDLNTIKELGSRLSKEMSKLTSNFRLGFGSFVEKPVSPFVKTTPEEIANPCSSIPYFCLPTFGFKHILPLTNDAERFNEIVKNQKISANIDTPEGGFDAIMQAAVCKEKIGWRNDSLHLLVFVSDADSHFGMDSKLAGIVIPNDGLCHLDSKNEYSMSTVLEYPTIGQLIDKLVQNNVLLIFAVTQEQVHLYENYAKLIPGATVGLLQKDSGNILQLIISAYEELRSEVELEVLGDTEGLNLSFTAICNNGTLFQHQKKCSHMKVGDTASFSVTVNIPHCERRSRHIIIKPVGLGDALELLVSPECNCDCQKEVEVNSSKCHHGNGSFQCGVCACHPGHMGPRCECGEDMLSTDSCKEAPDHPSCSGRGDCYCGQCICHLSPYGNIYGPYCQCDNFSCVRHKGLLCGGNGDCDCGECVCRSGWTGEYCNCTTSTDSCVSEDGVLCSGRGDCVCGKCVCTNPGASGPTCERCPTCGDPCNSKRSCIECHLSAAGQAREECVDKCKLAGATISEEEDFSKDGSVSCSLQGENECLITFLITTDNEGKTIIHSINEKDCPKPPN

For `CC(C)C[C@H](NC(=O)[C@H](CO)NC(=O)[C@H](CC(=O)O)NC(=O)[C@H](CC(C)C)NC(=O)[C@H](CC(=O)O)NC(=O)[C@@H](NC(=O)[C@H](CCCNC(=N)N)NC(=O)c1ccc(F)cc1)[C@@H](C)O)C(=O)N[C@@H](CCCNC(=N)N)C(=O)N[C@H](C(N)=O)[C@@H](C)O` [RTD-9mer, reference compound], the IC50 [1] was 22 ± 3 nM, the “% Helical Content CD Buffer” value [2] was 2.7% and the “% Helical Content CD Buffer + 30% TFE” value [2] was 2.1%. The “DX3puroβ6 (αvβ6+)/DX3puro (αvβ6−) selectivity ratio” value ([3]; cell binding, 1 hour) was 1.7±0.2 :1.
With `CC(C)C[C@H](NC(=O)[C@H](CO)NC(=O)[C@H](CC(=O)O)NC(=O)[C@H](CC(C)C)NC(=O)[C@H](CC(=O)O)NC(=O)[C@@H](NC(=O)[C@H](CCCNC(=N)N)NC(=O)c1ccc(F)cc1)[C@@H](C)O)C(=O)N[C@@H](CCCNC(=N)N)C(=O)N[C@@H](CCC(N)=O)C(=O)N[C@@H](CCCCN)C(=O)N[C@H](C(=O)N[C@@H](C)C(=O)N[C@@H](CCCNC(=N)N)C(=O)N[C@H](C(N)=O)[C@@H](C)O)C(C)C` [RTD-14mer] ({Benzoyl(4-F)}-RTDLDSLRQKVART-NH2) the IC50 [1] was 0.4 ± 0.1 nM, the “% Helical Content CD Buffer” value [2] was 18.1% and the “% Helical Content CD Buffer + 30% TFE” value [2] was 26.2%. The “DX3puroβ6 (αvβ6+)/DX3puro (αvβ6−) selectivity ratio” value [3] was 9.1±0.8 :1.
In the case of `CC(C)C[C@H](NC(=O)[C@H](Cc1ccc(O)cc1)NC(=O)[C@@H](NC(=O)[C@H](CC(C)C)NC(=O)[C@H](CC(=O)O)NC(=O)CNC(=O)[C@@H](NC(=O)COCCOCCNC(=O)c1ccc(F)cc1)C(C)C)[C@@H](C)O)C(=O)N[C@@H](CCCCN)C(=O)N[C@@H](CCC(N)=O)C(=O)N[C@@H](CCCCN)C(=O)N[C@H](C(=O)N[C@@H](C)C(=O)N[C@@H](CCCNC(=N)N)C(=O)N[C@H](C(=O)NCCOCCOCCOCCOCCOCCOCCOCCOCCOCCOCCOCCOCCOCCOCCOCCOCCOCCOCCOCCOCCOCCOCCOCCOCCOCCOCCOCCOCCC(N)=O)[C@@H](C)O)C(C)C` [T1-a], the “fold drop in affinity for αvβ6” value [1] is reported as 24 fold.
In the case of `CC(C)C[C@H](NC(=O)[C@H](Cc1ccc(O)cc1)NC(=O)[C@@H](NC(=O)[C@H](CC(C)C)NC(=O)[C@H](CC(=O)O)NC(=O)CNC(=O)[C@@H](NC(=O)CCOCCOCCOCCOCCNC(=O)c1ccc(F)cc1)C(C)C)[C@@H](C)O)C(=O)N[C@@H](CCCCN)C(=O)N[C@@H](CCC(N)=O)C(=O)N[C@@H](CCCCN)C(=O)N[C@H](C(=O)N[C@@H](C)C(=O)N[C@@H](CCCNC(=N)N)C(=O)N[C@H](C(=O)NCCOCCOCCOCCOCCOCCOCCOCCOCCOCCOCCOCCOCCOCCOCCOCCOCCOCCOCCOCCOCCOCCOCCOCCOCCOCCOCCOCCOCCC(N)=O)[C@@H](C)O)C(C)C` [T1-b], the “fold drop in affinity for αvβ6” value [1] is reported as 13 fold.
For `CC(C)C[C@H](NC(=O)[C@H](Cc1ccc(O)cc1)NC(=O)[C@@H](NC(=O)[C@H](CC(C)C)NC(=O)[C@H](CC(=O)O)NC(=O)CNC(=O)[C@@H](NC(=O)CCOCCOCCOCCOCCOCCOCCOCCOCCNC(=O)c1ccc(F)cc1)C(C)C)[C@@H](C)O)C(=O)N[C@@H](CCCCN)C(=O)N[C@@H](CCC(N)=O)C(=O)N[C@@H](CCCCN)C(=O)N[C@H](C(=O)N[C@@H](C)C(=O)N[C@@H](CCCNC(=N)N)C(=O)N[C@H](C(=O)NCCOCCOCCOCCOCCOCCOCCOCCOCCOCCOCCOCCOCCOCCOCCOCCOCCOCCOCCOCCOCCOCCOCCOCCOCCOCCOCCOCCOCCC(N)=O)[C@@H](C)O)C(C)C` [T1-c], the “fold drop in affinity for αvβ6” value [1] was 50 fold.
With `CC(C)C[C@H](NC(=O)[C@H](Cc1ccc(O)cc1)NC(=O)[C@@H](NC(=O)[C@H](CC(C)C)NC(=O)[C@H](CC(=O)O)NC(=O)CNC(=O)[C@@H](NC(=O)CCOCCOCCOCCOCCOCCOCCOCCOCCOCCOCCOCCOCCNC(=O)c1ccc(F)cc1)C(C)C)[C@@H](C)O)C(=O)N[C@@H](CCCCN)C(=O)N[C@@H](CCC(N)=O)C(=O)N[C@@H](CCCCN)C(=O)N[C@H](C(=O)N[C@@H](C)C(=O)N[C@@H](CCCNC(=N)N)C(=O)N[C@H](C(=O)NCCOCCOCCOCCOCCOCCOCCOCCOCCOCCOCCOCCOCCOCCOCCOCCOCCOCCOCCOCCOCCOCCOCCOCCOCCOCCOCCOCCOCCC(N)=O)[C@@H](C)O)C(C)C` [T1-d] the “fold drop in affinity for αvβ6” value [1] was 9 fold.
With `CC(C)C[C@H](NC(=O)[C@H](Cc1ccc(O)cc1)NC(=O)[C@@H](NC(=O)[C@H](CC(C)C)NC(=O)[C@H](CC(=O)O)NC(=O)CNC(=O)[C@@H](NC(=O)CCOCCOCCOCCOCCOCCOCCOCCOCCOCCOCCOCCOCCOCCOCCOCCOCCOCCOCCOCCOCCOCCOCCOCCOCCOCCOCCOCCOCCNC(=O)c1ccc(F)cc1)C(C)C)[C@@H](C)O)C(=O)N[C@@H](CCCCN)C(=O)N[C@@H](CCC(N)=O)C(=O)N[C@@H](CCCCN)C(=O)N[C@H](C(=O)N[C@@H](C)C(=O)N[C@@H](CCCNC(=N)N)C(=O)N[C@H](C(=O)NCCOCCOCCOCCOCCOCCOCCOCCOCCOCCOCCOCCOCCOCCOCCOCCOCCOCCOCCOCCOCCOCCOCCOCCOCCOCCOCCOCCOCCC(N)=O)[C@@H](C)O)C(C)C` [T1-e] the “fold drop in affinity for αvβ6” value [1] was 39 fold.
In the case of `CC(C)C[C@H](NC(=O)[C@H](Cc1ccc(O)cc1)NC(=O)[C@@H](NC(=O)[C@H](CC(C)C)NC(=O)[C@H](CC(=O)O)NC(=O)CNC(=O)[C@@H](NC(=O)c1ccc(CNC(=O)CCOCCOCCOCCOCCOCCOCCOCCOCCOCCOCCOCCOCCOCCOCCOCCOCCOCCOCCOCCOCCOCCOCCOCCOCCOCCOCCOCCOCCNC(=O)c2ccc(F)cc2)cc1)C(C)C)[C@@H](C)O)C(=O)N[C@@H](CCCCN)C(=O)N[C@@H](CCC(N)=O)C(=O)N[C@@H](CCCCN)C(=O)N[C@H](C(=O)N[C@@H](C)C(=O)N[C@@H](CCCNC(=N)N)C(=O)N[C@H](C(=O)NCCOCCOCCOCCOCCOCCOCCOCCOCCOCCOCCOCCOCCOCCOCCOCCOCCOCCOCCOCCOCCOCCOCCOCCOCCOCCOCCOCCOCCC(N)=O)[C@@H](C)O)C(C)C` [T1-g], the “fold higher binding to αvβ6-integrin” value ([1]; ELISA, compared to T1-e) is reported as 2 fold.
With “FB-RGDLQVLA ({FB}-RGDLQVLA) [A20-8mer, reference compound]” the “% Helical Content CD Buffer” value [2] was 6.7%, the “% Helical Content CD Buffer + 30% TFE” value [2] was 6.9% and the “DX3puroβ6 (αvβ6+)/DX3puro (αvβ6−) selectivity ratio” value ([3]; cell binding, 1 hour) was 7.8±0.5 :1.
For “FB-RGDLQVLAQKVART [A20-14mer, reference compound]”, the “% Helical Content CD Buffer” value [2] was 15.1%, the “% Helical Content CD Buffer + 30% TFE” value [2] was 35.7% and the “DX3puroβ6 (αvβ6+)/DX3puro (αvβ6−) selectivity ratio” value ([3]; cell binding, 1 hour) was 8.4±0.4 :1.
For “[^18F]FB-RSDLTPLF ({(18F)FB}-RSDLTPLF) [N-[^18F]KL3]”, the “percent internalized relative to the amount bound to DX3puroβ6 (αvβ6+) cells” value ([3]; 1 hour) was 23.5±4.7% and the “binding to DX3puroβ6 (αvβ6+) cells” value ([3]; 1 hour) was 0.7±0.2%.
For “[^18F]FB-RSDLTPLFQKVART ({(18F)FB″}-RSDLTPLFQKVART) [N-[^18F]KL3Q]”, the “percent internalized relative to the amount bound to DX3puroβ6 (αvβ6+) cells” value ([3]; 1 hour) was 22.8±1.3%, the “binding to DX3puroβ6 (αvβ6+) cells” value ([3]; 1 hour) was 1.3±0.1% and the “fold increase in cell binding” value ([3]; compared to N-[18F]KL3) was 2 fold.
For “[^18F]FB-VGDLTYLKKKVART ({(18F)FB″}-VGDLTYLKKKVART) [N-[^18F]P1K-b]”, the “binding to DX3puroβ6 (αvβ6+) cells” value ([3]; 1 hour) was 7.9±0.7%.
For “[^18F]FB-VGDLTYLKQKVART ({(18F)FB″}-VGDLTYLKQKVART) [N-[^18F]P1Q]”, the “percent internalized relative to the amount bound to DX3puroβ6 (αvβ6+) cells” value ([3]; 1 hour) was 10.2±1.2% and the “binding to DX3puroβ6 (αvβ6+) cells” value ([3]; 1 hour) was 5.6±0.2% and 2.1±0.2% and 5.6%.
For “[^18F]FB-VGDLTYLKRKATVQ ({(18F)FB″}-VGDLTYLKRKATVQ) [N-[^18F]P1Q-Scrb]”, the “DX3puroβ6 (αvβ6+)/DX3puro (αvβ6−) selectivity ratio” value [3] was 1.7±0.06 :1 and the “binding to DX3puroβ6 (αvβ6+) cells” value ([3]; 1 hour) was 2.1±0.2%.
